Measurements from US8927717B1, “Thiochromeno[2,3-c]quinolin-12-one derivatives, preparation method and application thereof” (National Defense Medical Center, priority 2014, dated 2015).

Experiments:
Assay type in all cases: cell-based
[1] = test system: HT29
[2] = test system: OVCAR-8
[3] = test system: PC-3
[4] = test system: NCI-H226
[5] = test system: SNB-19
[6] = test system: SNB-75
[7] = test system: SK-MEL-28
[8] = test system: SK-OV-3
[9] = test system: 60 cancer cell lines; assay: NCI 60-cell screen, SRB, whole panel (mean, delta, range)
[10] = test system: RPMI-8226
[11] = test system: NCI/ADR-RES
[12] = test system: K-562
[13] = test system: SW-620
[14] = test system: COLO 205
[15] = test system: TK-10; settings: Renal cancer; 10^−5 molar; 48 hours; SRB
[16] = test system: SN12C
[17] = test system: SR
[18] = test system: NCI-H522
[19] = test system: T-47D; settings: Breast cancer; 10^−5 molar; 48 hours; SRB
[20] = test system: SF-295
[21] = Colon cancer, 10^−5 molar, 48 hours, SRB
[22] = Homo sapiens, HT-29, HT29, five dose
[23] = Ovarian cancer, 10^−5 molar, 48 hours, SRB
[24] = Homo sapiens, NCI-H226, five dose
[25] = Non-small cell lung cancer, 10^−5 molar, 48 hours, SRB
[26] = CNS cancer, 10^−5 molar, 48 hours, SRB
[27] = Homo sapiens, SNB-19, five dose
[28] = Homo sapiens, SNB-75, five dose
[29] = Homo sapiens, SK-MEL-28, five dose
[30] = Leukemia, 10^−5 molar, 48 hours, SRB
[31] = Homo sapiens, SW-620, five dose
[32] = Homo sapiens, COLO 205, five dose
[33] = Homo sapiens, NCI-H522, five dose
[34] = Homo sapiens, SF-295, five dose

SMILES: CN(C)CCNc1nc2ccccc2c2c(=O)c3cc(Cl)ccc3sc12 [Compound N7, 10-Chloro-6-((2-(dimethylamino)ethyl)amino)-12H-thiochromeno[2,3-c]quinolin-12-one]
- Growth percent HT29 [1, 21]: −84.24%
- TGI ([1]; HT29, five dose): 3.36 µM
- GI50 [1, 22]: 1.65 µM
- LC50 (concentration killing 50% of cells) [1, 22]: 6.88 µM
- GI50 ([2]; Homo sapiens, OVCAR-8, five dose): 1.64 µM
- CC50 ([2]; Homo sapiens, OVCAR-8, five dose, read-out: LC50 (the source's name)): 6.06 µM
- TGI ([2]; OVCAR-8, five dose): 3.15 µM
- Growth percent OVCAR-8 [2, 23]: 1.22%
- GI50 ([3]; Homo sapiens, PC-3, five dose): 1.47 µM
- CC50 ([3]; Homo sapiens, PC-3, five dose, read-out: LC50 (the source's name)): 5.74 µM
- TGI ([3]; PC-3, five dose): 2.90 µM
- Growth percent PC-3 ([3]; Prostate cancer, 10^−5 molar, 48 hours, SRB): 33.32%
- GI50 [4, 24]: 1.84 µM
- LC50 (concentration giving 50% net cell kill) [4, 24]: 24.3 µM
- TGI ([4]; NCI-H226, five dose): 4.38 µM
- Growth percent NCI-H226 [4, 25]: 58.08%
- Growth percent SNB-19 [5, 26]: 55.44%
- GI50 [5, 27]: 1.54 µM
- LC50 (concentration killing 50% of cells) [5, 27]: 6.1 µM
- TGI ([5]; SNB-19, five dose): 3.07 µM
- Growth percent SNB-75 [6, 26]: 33.36%
- GI50 [6, 28]: 1.28 µM
- LC50 [6, 28]: 12.1 µM
- TGI ([6]; SNB-75, five dose): 3.69 µM
- GI50 [7, 29]: 1.81 µM
- LC50 [7, 29]: 5.89 µM
- Growth percent SK-MEL-28 ([7]; Melanoma, 10^−5 molar, 48 hours, SRB): −76.79%
- TGI ([7]; SK-MEL-28, five dose): 3.27 µM
- GI50 ([8]; Homo sapiens, SK-OV-3, five dose): 1.68 µM
- CC50 ([8]; Homo sapiens, SK-OV-3, five dose, read-out: LC50 (the source's name)): 5.58 µM
- Growth percent SK-OV-3 [8, 23]: 70.10%
- TGI ([8]; SK-OV-3, five dose): 3.06 µM
- GI50 ([9]; 60 cell, mean over panel, five dose): 1.66 µM
- CC50 ([9]; 60 cell, mean over panel, five dose, read-out: LC50, Mean): 6.92 µM
- Growth percent, Delta ([9]; delta over the cell panel, 10^−5 molar, 48 hours, SRB): 85.53%
- TGI, Mean ([9]; mean over panel, five dose): 3.39 µM
- Growth percent, Mean ([9]; mean over the cell panel, 10^−5 molar, 48 hours, SRB): −11.06%
- Growth percent, Range ([9]; range over the cell panel, 10^−5 molar, 48 hours, SRB): 187.88%
- GI50 ([10]; Homo sapiens, RPMI-8226, five dose): 1.76 µM
- CC50 ([10]; Homo sapiens, RPMI-8226, five dose, read-out: LC50 (the source's name)): 7.69 µM
- Growth percent RPMI-8226 [10, 30]: −37.68%
- TGI ([10]; RPMI-8226, five dose): 3.68 µM
- GI50 ([11]; Homo sapiens, NCI/ADR-RES, five dose): 1.67 µM
- CC50 ([11]; Homo sapiens, NCI/ADR-RES, five dose, read-out: LC50 (the source's name)): 6 µM
- TGI ([11]; NCI/ADR-RES, five dose): 3.17 µM
- Growth percent NCI/ADR-RES [11, 23]: 23.00%
- GI50 ([12]; Homo sapiens, K562, K-562, five dose): 1.33 µM
- CC50 ([12]; Homo sapiens, K562, K-562, five dose, read-out: LC50 (the source's name)): 6.74 µM
- TGI ([12]; K-562, five dose): 3.00 µM
- Growth percent K-562 [12, 30]: −58.60%
- Growth percent SW-620 [13, 21]: −67.82%
- GI50 [13, 31]: 1.71 µM
- LC50 [13, 31]: 6.36 µM
- TGI ([13]; SW-620, five dose): 3.29 µM
- TGI ([14]; COLO 205, five dose): 3.17 µM
- Growth percent COLO 205 [14, 21]: −82.85%
- GI50 [14, 32]: 1.66 µM
- LC50 [14, 32]: 6.05 µM
- Growth percent TK-10 [15]: −89.05%
- GI50 ([16]; Homo sapiens, SN12C, five dose): 1.59 µM
- CC50 ([16]; Homo sapiens, SN12C, five dose, read-out: LC50 (the source's name)): 6.12 µM
- Growth percent SN12C ([16]; Renal cancer, 10^−5 molar, 48 hours, SRB): 48.67%
- TGI ([16]; SN12C, five dose): 3.12 µM
- GI50 ([17]; Homo sapiens, SR, five dose): 1.7 µM
- LC50 (50% lethal concentration) ([17]; Homo sapiens, SR, five dose): 8.14 µM
- Growth percent SR [17, 30]: −34.76%
- TGI ([17]; SR, five dose): 3.73 µM
- GI50 [18, 33]: 1.59 µM
- LC50 (concentration causing 50% net cell kill) [18, 33]: 5.9 µM
- TGI ([18]; NCI-H522, five dose): 3.07 µM
- Growth percent NCI-H522 [18, 25]: −8.99%
- Growth percent T-47D [19]: 26.06%
- Growth percent SF-295 [20, 26]: −32.59%
- GI50 [20, 34]: 1.73 µM
- LC50 [20, 34]: 5.98 µM
- TGI ([20]; SF-295, five dose): 3.21 µM
